Our source for the IC50 values is patent US11072585B2 (PharmAkea, Inc., priority 2015, dated 2021).

As a reminder, the IC50 is the midpoint of a concentration-inhibition curve.

Counter-ions that a name gives are not always drawn. A value given as a limit tells only on which side of the number the result lay.

The target of the assay is human LOXL2 (Homo sapiens (Human), UniProt Q9Y4K0). Kind of assay: Human LOXL2 amine oxidase activity assay (Amplex Red). The assay is classed as biochemical. The settings on record: concentrated conditioned media from CHO cells stably expressing human LOXL2; 2 h at 37° C. with compound; DAP substrate. Put shortly: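 Concentrated conditioned medium from CHO cells stably expressing human LOXL2 was preincubated with compound for 2 h at 37 °C in 50 mM borate, pH 8. 1,5-diaminopentane substrate and Amplex Red/HRP were then added. Fluorescence (544/590) was read kinetically every 2 min for 1 h, with activity taken from the linear slope.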
Sequence of human LOXL2 (Q9Y4K0 26-774): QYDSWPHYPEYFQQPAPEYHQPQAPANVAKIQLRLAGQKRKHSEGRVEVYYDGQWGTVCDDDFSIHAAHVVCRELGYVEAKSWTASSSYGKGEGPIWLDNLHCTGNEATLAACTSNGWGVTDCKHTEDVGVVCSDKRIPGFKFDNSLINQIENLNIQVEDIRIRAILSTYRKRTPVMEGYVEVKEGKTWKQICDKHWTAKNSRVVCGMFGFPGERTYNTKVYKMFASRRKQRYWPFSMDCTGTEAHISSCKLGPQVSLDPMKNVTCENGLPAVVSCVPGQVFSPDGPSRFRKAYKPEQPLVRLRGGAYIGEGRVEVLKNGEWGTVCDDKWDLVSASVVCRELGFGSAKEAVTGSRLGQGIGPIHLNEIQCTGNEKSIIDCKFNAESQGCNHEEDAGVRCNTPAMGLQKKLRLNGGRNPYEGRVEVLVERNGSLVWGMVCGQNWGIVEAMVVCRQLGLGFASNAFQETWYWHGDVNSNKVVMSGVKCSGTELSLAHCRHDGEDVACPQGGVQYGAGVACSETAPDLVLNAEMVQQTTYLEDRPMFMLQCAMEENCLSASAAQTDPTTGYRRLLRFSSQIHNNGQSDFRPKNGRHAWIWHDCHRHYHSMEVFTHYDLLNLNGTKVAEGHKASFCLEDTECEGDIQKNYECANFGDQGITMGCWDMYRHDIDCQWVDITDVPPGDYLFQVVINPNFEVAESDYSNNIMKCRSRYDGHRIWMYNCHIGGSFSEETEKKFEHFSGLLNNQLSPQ

As to `NCc1cc(O[C@H]2CCCN(C(=O)c3cc(=O)c4ccccc4o3)C2)nc(C(F)(F)F)c1` [Compound 1-48, (S)-2-(3-((4-(Aminomethyl)-6-(trifluoromethyl)pyridin-2-yl)oxy)piperidine-1-carbonyl)-4H-chromen-4-one trifluoroacetate], the IC50 is less than 300 nM. As for `NCc1cc(Oc2cncc(C(=O)N3C[C@@H](O)[C@H](F)C3)c2)nc(C(F)(F)F)c1` (racemic) [Compound 1-55, Racemic-trans-(5-((4-(aminomethyl)-6-(trifluoromethyl)pyridin-2-yl)oxy)pyridin-3-yl)(-3-fluoro-4-hydroxypyrrolidin-1-yl)methanone hydrochloride], the IC50 was less than 300 nM. Turning to `C#Cc1cccc(NC(=O)c2cccc(Oc3cc(CN)cc(C(F)(F)F)n3)c2)c1` [Compound 1-247, 3-((4-(Aminomethyl)-6-(trifluoromethyl)pyridin-2-yl)oxy)-N-(3-ethynylphenyl)benzamide hydrochloride], the IC50 is less than 300 nM. On to `NCc1cc(Oc2cccc(C(=O)NC3(CO)CC3)c2)nc(C(F)(F)F)c1` [Compound 1-31, 3-((4-(Aminomethyl)-6-(trifluoromethyl)pyridin-2-yl)oxy)-N-(1-(hydroxymethyl)cyclopropyl)benzamide hydrochloride], for which the IC50 is less than 300 nM. As to `CC1(O)CCN(C(=O)c2cccc(Oc3cc(CN)cc(C(F)(F)F)n3)c2)CC1` [Compound 1-205, (3-((4-(Aminomethyl)-6-(trifluoromethyl)pyridin-2-yl)oxy)phenyl)(4-hydroxy-4-methylpiperidin-1-yl)methanone hydrochloride], the IC50 was less than 300 nM. For `NCc1cc(Oc2cccc(C(=O)N3CC4(CCOCC4)C3)c2)nc(C(F)(F)F)c1` [Compound 1-207, (3-((4-(Aminomethyl)-6-(trifluoromethyl)pyridin-2-yl)oxy)phenyl)(7-oxa-2-azaspiro[3.5]nonan-2-yl)methanone hydrochloride] the value was less than 300 nM; for `NCc1cc(Oc2cccc(C(=O)N3CC=CC3)c2)nc(C(F)(F)F)c1` [Compound 1-215, (3-((4-(Aminomethyl)-6-(trifluoromethyl)pyridin-2-yl)oxy)phenyl)(2,5-dihydro-1H-pyrrol-1-yl)methanone hydrochloride], less than 300 nM. In the case of `NCc1cc(Oc2cccc(C(=O)N3CCC4(CC3)CNC(=O)O4)c2)nc(C(F)(F)F)c1` [Compound 1-27, 8-(3-((4-(Aminomethyl)-6-(trifluoromethyl)pyridin-2-yl)oxy)benzoyl)-1-oxa-3,8-diazaspiro[4.5]decan-2-one hydrochloride], the IC50 was less than 300 nM.

On to `CC(=O)N1CCC2(CC(Oc3cc(CN)cc(C(F)(F)F)n3)C2)C1` (centres unmarked) [Compound 1-244, 1-(2-((4-(Aminomethyl)-6-(trifluoromethyl)pyridin-2-yl)oxy)-6-azaspiro[3.4]octan-6-yl)ethanone hydrochloride], for which the IC50 was in the range of 300 to 1000 nM.

Turning to `C#C[C@@H](CC(=O)OC)NC(=O)c1cccc(Oc2cc(CN)cc(C(F)(F)F)n2)c1` [Compound 1-222, Methyl (R)-3-(3-((4-(aminomethyl)-6-(trifluoromethyl)pyridin-2-yl)oxy)benzamido)pent-4-ynoate hydrochloride], the IC50 was less than 300 nM. For `NCc1cc(Oc2cccc(C(=O)N3C[C@@H](F)[C@@H](O)C3)c2)nc(C(F)(F)F)c1` (single isomer, unassigned) [Compound 1-250, (R,S) or (S,R)-cis-(3-((4-(Aminomethyl)-6-(trifluoromethyl)pyridin-2-yl)oxy)phenyl)(3-fluoro-4-hydroxypyrrolidin-1-yl)methanone hydrochloride] the value was less than 300 nM; for `NCc1cc(Oc2cccc(C(=O)N3CCC[C@H](CO)C3)c2)nc(C(F)(F)F)c1` [Compound 1-203, (S)-(3-((4-(Aminomethyl)-6-(trifluoromethyl)pyridin-2-yl)oxy)phenyl)(3-(hydroxymethyl)piperidin-1-yl)methanone hydrochloride], less than 300 nM. Regarding `NCc1cc(Oc2cccc(-n3ccccc3=O)c2)nc(C(F)(F)F)c1` [Compound 1-169, 1-(3-((4-(Aminomethyl)-6-(trifluoromethyl)pyridin-2-yl)oxy)phenyl)pyridin-2(1H)-one], the IC50 is less than 300 nM. Consider `NCc1cc(Oc2cc(C(=O)N3C[C@@H](O)[C@H](F)C3)ccc2OCc2ccccc2)nc(C(F)(F)F)c1` (racemic) [Compound 1-231, Racemic-trans-(3-((4-(aminomethyl)-6-(trifluoromethyl)pyridin-2-yl)oxy)-4-(benzyloxy)phenyl)(3-fluoro-4-hydroxypyrrolidin-1-yl)methanone], for which the IC50 was less than 300 nM.

Regarding `NCc1cc(Oc2cccc(C(=O)O)c2)nc(C(F)(F)F)c1` [Compound 1-224, 3-((4-(Aminomethyl)-6-(trifluoromethyl)pyridin-2-yl)oxy)benzoic acid hydrochloride], the IC50 lay within 300 to 1000 nM.

In the case of `NCc1cc(O[C@@H]2CCN(C(=O)Nc3ccccc3)C2)nc(C(F)(F)F)c1` [Compound 1-39, (R)-3-((4-(Aminomethyl)-6-(trifluoromethyl)pyridin-2-yl)oxy)-N-phenylpyrrolidine-1-carboxamide trifluoroacetate], the half-inhibitory concentration (IC50) is less than 300 nM.

As for `NCc1cc(Oc2cccc(C(=O)N[C@H]3CCC[C@H]3O)c2)nc(C(F)(F)F)c1` [Compound 1-210, 3-((4-(Aminomethyl)-6-(trifluoromethyl)pyridin-2-yl)oxy)-N-((1S,2R)-2-hydroxycyclopentyl)benzamide hydrochloride], the IC50 was less than 300 nM. As for `Cc1cc(=O)n(Cc2cc(CN)cc(C(F)(F)F)n2)c(=O)n1Cc1ccncn1` [Compound 1-243, 3-((4-(Aminomethyl)-6-(trifluoromethyl)pyridin-2-yl)methyl)-6-methyl-1-(pyrimidin-4-ylmethyl)pyrimidine-2,4(1H,3H)-dione hydrochloride], the IC50 lay within 300 to 1000 nM. For `NCc1cc(Oc2cccc(C(=O)NCC3(O)CCC3)c2)nc(C(F)(F)F)c1` [Compound 1-201, 3-((4-(Aminomethyl)-6-(trifluoromethyl)pyridin-2-yl)oxy)-N-((1-hydroxycyclobutyl)methyl)benzamide hydrochloride] the value was less than 300 nM; for `NCc1cc(Oc2cccc(C(=O)N3CCC[C@H]3C(=O)O)c2)nc(C(F)(F)F)c1` [Compound 1-24, (S)-1-(3-((4-(Aminomethyl)-6-(trifluoromethyl)pyridin-2-yl)oxy)benzoyl)pyrrolidine-2-carboxylic acid hydrochloride], greater than 1000 nM. In the case of `CCc1cccc(NC(=O)c2cccc(Oc3cc(CN)cc(C(F)(F)F)n3)c2)c1` [Compound 1-245, 3-((4-(Aminomethyl)-6-(trifluoromethyl)pyridin-2-yl)oxy)-N-(3-ethylphenyl)benzamide hydrochloride] it was less than 300 nM.

With `CCOC(=O)CN1C(=O)CCc2c(Oc3cc(CN)cc(C(F)(F)F)n3)cccc21` [Compound 1-235, Ethyl 2-(5-((4-(aminomethyl)-6-(trifluoromethyl)pyridin-2-yl)oxy)-2-oxo-3,4-dihydroquinolin-1(2H)-yl)acetate], the concentration for half-maximal inhibition (IC50) was 300 to 1000 nM. As to `NCc1cc(Oc2cccc(C(=O)N3CC[C@@H](N)C3)c2)nc(C(F)(F)F)c1` [Compound 1-22, (R)-(3-((4-(Aminomethyl)-6-(trifluoromethyl)pyridin-2-yl)oxy)phenyl)(3-aminopyrrolidin-1-yl)methanone dihydrochloride], the IC50 was less than 300 nM.
